Results published in PubChem BioAssay (NCI).
Where “and” joins values, the source holds several entries; their conditions need not be identical. Equal entries are not always repeated.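 All cell lines were grown in 96-well plates and treated with compound for 48 hours. The concentration for 50% growth inhibition is given as GI50. TGI denotes the concentration required for complete inhibition of growth.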

Columns and labels:
Assay in all cases: growth of human tumour cells (NCI), 48 h
[1] = tested on: A498 renal
[2] = tested on: EKVX NSCLC
[3] = tested on: HCC-2998 colon
[4] = tested on: NCI-H522 lung
[5] = tested on: SF-268 CNS
[6] = tested on: SK-MEL-28 melanoma
[7] = tested on: M14 melanoma
[8] = tested on: RPMI-8226 leukemia
[9] = tested on: SK-MEL-2 melanoma
[10] = tested on: RXF 393 renal

`CCN(CC)CCNc1n[n+]([O-])c2ccccc2[n+]1[O-]` was tested, and the GI50 [1] was 5.47 µM and 2.54 µM, the TGI [1] was 9.39 µM and 9.85 µM and the TGI [2] was 44 µM. For the same molecule, the TGI [3] was 6.12 µM and 14.5 µM, the GI50 [4] was 3.85 µM and 7.95 µM and the TGI [4] was 17.3 µM and 22.9 µM. The TGI [5] was 48.4 µM and > 100 µM, the TGI [6] was > 100 µM and the TGI [7] was 21 µM and 28.7 µM. The TGI [8] was 18.9 µM and 20.5 µM, the GI50 [9] was 2.34 µM and 5.13 µM and the TGI [9] was 13.2 µM and 19.1 µM. For the same molecule, the TGI [10] was 25.4 µM and 42.7 µM.
In the case of `O=C1c2ccccc2-n2c1nc1ccccc1c2=O`, the TGI [1] was 59.8 µM, the TGI [2] was 35.3 µM and the TGI [3] was > 90.4 µM. For the same molecule, the TGI [4] was 64.3 µM, the TGI [5] was > 100 µM and the TGI [6] was 50.7 µM. For the same molecule, the TGI [7] was 11.1 µM, the TGI [8] was > 100 µM and the TGI [9] was 22.9 µM. For the same molecule, the TGI [10] was > 81.6 µM.
With `N#C[C@@H]1C(n2ccc(N)nc2=O)O[C@H](CO)[C@H]1O` (stereo partly drawn) the GI50 [1] was > 100 µM, the TGI [1] was > 100 µM and the GI50 [2] was > 100 µM. For the same molecule, the TGI [2] was > 100 µM, the GI50 [3] was > 100 µM and the TGI [3] was > 100 µM. The GI50 [4] was 4.24 µM, the TGI [4] was > 100 µM and the GI50 [5] was 22.3 µM. For the same molecule, the TGI [5] was > 100 µM, the GI50 [6] was 64.2 µM and the TGI [6] was > 100 µM. The GI50 [7] was 2.97 µM, the TGI [7] was > 100 µM and the GI50 [8] was > 100 µM. The TGI [8] was > 100 µM, the GI50 [9] was > 100 µM and the TGI [9] was > 100 µM. The GI50 [10] was > 100 µM and the TGI [10] was > 100 µM.
For `CCN1CSC(=S)N(CC)C1`, the TGI [1] was > 100 µM, the TGI [2] was > 100 µM and the TGI [3] was > 100 µM. For the same molecule, the TGI [4] was > 100 µM, the TGI [5] was > 100 µM and the TGI [6] was > 100 µM. The TGI [7] was > 100 µM, the TGI [8] was > 100 µM and the TGI [9] was > 100 µM. For the same molecule, the TGI [10] was > 100 µM.
For `CCOC(=O)COS(=O)(=O)C(F)(F)F`, the TGI [1] was > 100 µM, the TGI [2] was > 100 µM and the TGI [3] was > 100 µM. The TGI [4] was > 100 µM, the TGI [5] was > 100 µM and the TGI [6] was > 100 µM. For the same molecule, the TGI [7] was > 100 µM, the TGI [8] was 50.5 µM and the TGI [9] was > 100 µM. For the same molecule, the TGI [10] was > 100 µM.
In the case of `CC(C)(C)NC(=O)[C@H]1C[C@H]2CCCC[C@H]2CN1C[C@@H](O)[C@H](Cc1ccccc1)NC(=O)[C@H](CC(N)=O)NC(=O)c1ccc2ccccc2n1`, the GI50 [1] was 15.7 µM, the TGI [1] was 32.1 µM and the GI50 [2] was 3.57 µM. For the same molecule, the TGI [2] was > 59.9 µM, the GI50 [3] was 13.4 µM and the TGI [3] was 26.8 µM. For the same molecule, the GI50 [4] was 15.6 µM, the TGI [4] was 33.8 µM and the GI50 [5] was 13 µM. It also gave a TGI [5] of 30.1 µM, a GI50 [6] of 16.9 µM and a TGI [6] of 33.1 µM. For the same molecule, the GI50 [7] was 13.3 µM, the TGI [7] was 28 µM and the GI50 [8] was 3.5 µM. For the same molecule, the TGI [8] was 14.8 µM, the GI50 [9] was 22.7 µM and the TGI [9] was > 65.7 µM. The GI50 [10] was 12.5 µM and the TGI [10] was 32.1 µM.
